Source: patent publication US8772504B2, “Substituted benzoxazole, benzimidazole, oxazolopyridine and imidazopyridine derivatives as gamma secretase modulators” (Janssen Pharmaceuticals, Inc., priority 2009, dated 2014)

Tests used:
Aβ42 [1] = assay: Screening for γ-secretase-modulating activity, Method 1: Aβ42 sandwich ELISA on SKNBE2 cell media; format: cell-based; details: Homo sapiens, SKNBE2 cells carrying APP 695 wild type
Outline: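 SKNBE2 cells expressing wild-type APP695 were treated with compound for 18 h in Ultraculture/1% glutamine. Secreted Aβ42 was quantified by sandwich ELISA (C-terminal capture, biotinylated 3D6, TMB, 450 nm), with WST-1 used as a toxicity check. IC50 was derived from 4-parameter fits of % inhibition or % of untreated control.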

Aβtotal [2] = assay: Screening for γ-secretase-modulating activity, Method 1: Aβtotal sandwich ELISA on SKNBE2 cell media; format: cell-based; details: Homo sapiens, SKNBE2 cells carrying APP 695 wild type
Outline: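 SKNBE2 cells expressing wild-type APP 695 were treated with compound for 18 hours. Aβtotal in the medium was measured by sandwich ELISA (6E10 capture, biotinylated 4G8 detection, fluorogenic peroxidase read-out). IC50 came from a 4-parameter fit of % inhibition with top/bottom fixed at 100/0 and Hill slope 1, or as averaged IC50 from % of untreated control.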

Aβ42 [3] = assay: Screening for γ-secretase-modulating activity, Method 2: Aβ42 Alphalisa on SKNBE2 cell supernatant; format: cell-based; details: Method 2, Table 3c, SKNBE2 cells carrying APP 695 wild type, overnight incubation
Outline: (§1)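 SKNBE2 cells expressing wild-type APP695, plated at 10^4 cells/well with compound at several concentrations and incubated overnight at 37° C. Aβ42 (C-terminal capture, N-terminal biotinylated detection) and Aβtotal (N-terminal/4G8 pair) measured in supernatant by AlphaLISA. IC50 from 4-parameter fit of percent of compound-free control.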

Aβtotal [4] = assay: Screening for γ-secretase-modulating activity, Method 2: Aβtotal Alphalisa on SKNBE2 cell supernatant; format: cell-based; details: Method 2, Table 3c, SKNBE2 cells carrying APP 695 wild type, overnight incubation
Outline: as §1

Aβ42 [5] = assay: In vivo efficacy Method 1: brain soluble Aβ42 by ELISA; parameters: species or system mouse; details: Table 4a, single oral dose, overnight fasted animals, sacrificed after 4 h, soluble fraction of brain homogenates
Text: (§2) To determine whether acute administration of an Aβ42 lowering agent would reduce Aβ42 levels in vivo, non-transgenic rodents, e.g. mice or rats were used. Alternatively, two to three month old Tg2576 mice expressing APP695 containing the “Swedish” variant can be used or a transgenic mouse model developed by Dr. Fred Van Leuven (K.U. Leuven, Belgium) and co-workers, with neuron-specific expression of a clinical mutant of the human amyloid precursor protein [V717I] […] Young transgenic mice have high levels of Aβ in the brain but no detectable Aβ deposition. At approximately 6-8 months of age, the transgenic mice start to display spontaneous, progressive accumulation of β-amyloid (Aβ) in the brain, eventually resulting in amyloid plaques within the subiculum, hippocampus and cortex. Animals treated with the Aβ42 lowering agent were examined and compared to those untreated or treated with vehicle and brain levels of soluble Aβ42 and total Aβ would be quantitated by standard techniques, for example, using ELISA.
(§3) A typical protocol for measuring Aβ42 lowering in vivo is shown but it is only one of many variations that could be used to optimize the levels of detectable Aβ. For example, Aβ42 lowering compounds were formulated in 20% of Captisol® (a sulfobutyl ether of β-cyclodextrin) in water or 20% hydroxypropyl β cyclodextrin. The Aβ42 lowering agents were administered as a single oral dose or by any acceptable route of administration to overnight fasted animals. After 4 h, the animals were sacrificed and Aβ42 levels were analysed.
(§4) Blood was collected by decapitation and exsanguinations in EDTA-treated collection tubes. Blood was centrifuged at 1900 g for 10 minutes (min) at 4° C. and the plasma recovered and flash frozen for later analysis. The brain was removed from the cranium and hindbrain. The cerebellum was removed and the left and right hemisphere were separated. The left hemisphere was stored at −18° C. for quantitative analysis of test compound levels. The right hemisphere was rinsed with phosphate-buffered saline (PBS) buffer and immediately frozen on dry ice and stored at −80° C. until homogenization for biochemical assays.
(§5) All samples were sonicated for 30 seconds on ice at 20% power output (pulse mode). Homogenates were centrifuged at 221.300×g for 50 min. The resulting high speed supernatants were then transferred to fresh tubes and were optionally further purified before the next step. A portion of the supernatant was neutralized with 10% 0.5 M Tris-HCl and this was used to quantify Aβtotal.
(§6) The obtained supernatants were purified with Water Oasis HLB reverse phase columns (Waters Corp., Milford, Mass.) to remove non-specific immunoreactive material from the brain lysates prior subsequent Aβ detection. Using a vacuum manifold, all solutions were passed through the columns at a rate of approximately 1 ml per min, so the vacuum pressure was adjusted accordingly throughout the procedure. Columns were preconditioned with 1 ml of 100% MeOH, before equilibration with 1 ml of H2O, Non-neutralized brain lysates were loaded onto the columns. The loaded samples were then washed twice with the first wash performed with 1 ml of 5% MeOH, and the second wash with 1 ml of 30% MeOH. Finally, the Aβ was eluted from the columns and into 100×30 mm glass tubes, with a solution of 90% MeOH with 2% NH4OH. The eluate was then transferred into 1.5 ml tubes and concentrated in a speed-vac concentrator on high heat for about 1.5-2 h at 70° C. The concentrated Aβ was then resuspended in UltraCULTURE General Purpose Serum-Free Medium (Cambrex Corp., Walkersville, Md.) plus Protease Inhibitors added.
To quantify the amount of Aβ42 in the soluble fraction of the brain homogenates, commercially available Enzyme-Linked-Immunosorbent-Assay (ELISA) kits were used (e.g. Innotest® β-Amyloid(1-42), Innogenetics N.V., Ghent, Belgium). The Aβ42 ELISA was performed using the plate provided with the kit only.

Aβtotal [6] = assay: In vivo efficacy Method 1: brain soluble Aβtotal by ELISA; parameters: species or system mouse; details: Table 4a, single oral dose, overnight fasted animals, sacrificed after 4 h, soluble fraction of brain homogenates
Text: as §2, §3, §4, §5
as §6, with “added. […]” for “added.”

Aβ42 [7] = assay: In vivo efficacy Method 2: brain soluble Aβ42 by ELISA; parameters: species or system mouse; details: Table 4b, single oral dose, overnight fasted non-transgenic animals, sacrificed after 4 h, soluble fraction of brain homogenates
Text: (§7) To determine whether acute administration of an Aβ42 lowering agent would reduce Aβ42 levels in vivo, non-transgenic rodents, e.g. mice or rats were used. Animals treated with the Aβ42 lowering agent were examined and compared to those untreated or treated with vehicle and brain levels of soluble Aβ42 and total Aβ were quantitated by standard techniques, for example, using ELISA. Treatment periods varied from hours (h) to days and were adjusted based on the results of the Aβ42 lowering once a time course of onset of effect could be established.
as §3, §4
(§8) Mouse brains from non-transgenic animals were resuspended in 8 volumes of 0.4% DEA (diethylamine)/50 mM NaCl containing protease inhibitors (Roche-11873580001 or 04693159001) per gram of tissue, e.g. for 0.158 g brain, add 1.264 ml of 0.4% DEA. All samples were homogenized in the FastPrep-24 system (MP Biomedicals) using lysing matrix D (MPBio #6913-100) at 6 m/s for 20 seconds. Homogenates were centrifuged at 221.300×g for 50 min. The resulting high speed supernatants were then transferred to fresh eppendorf tubes. Nine parts of supernatant were neutralized with 1 part 0.5 M Tris-HCl pH 6.8 and used to quantify Aβtotal and Aβ42.
(§9) To quantify the amount of Aβtotal and Aβ42 in the soluble fraction of the brain homogenates, Enzyme-Linked-Immunosorbent-Assays were used . Briefly, the standards (a dilution of synthetic Aβ1-40 and Aβ1-42, Bachem) were prepared in 1.5 ml Eppendorf tube in Ultraculture, with final concentrations ranging from 10000 to 0.3 pg/ml. The samples and standards were co-incubated with HRPO-labelled N-terminal antibody for Aβ42 detection and with the biotinylated mid-domain antibody 4G8 for Aβtotal detection. 50 μl of conjugate/sample or conjugate/standards mixtures were then added to the antibody-coated plate (the capture antibodies selectively recognize the C-terminal end of Aβ42, antibody JRF/cAβ42/26, for Aβ42 detection and the N-terminus of Aβ, antibody JRF/rAβ/2, for Aβtotal detection). The plate was allowed to incubate overnight at 4° C. in order to allow formation of the antibody-amyloid complex. Following this incubation and subsequent wash steps the ELISA for Aβ42 quantification was finished by addition of Quanta Blu fluorogenic peroxidase substrate according to the manufacturer's instructions (Pierce Corp., Rockford, Ill.). A reading was performed after 10 to 15 min (excitation 320/emission 420).
In this model at least 20% Aβ42 lowering compared to untreated animals would be advantageous.

Aβtotal [8] = assay: In vivo efficacy Method 2: brain soluble Aβtotal by ELISA; parameters: species or system mouse; details: Table 4b, single oral dose, overnight fasted non-transgenic animals, sacrificed after 4 h, soluble fraction of brain homogenates
Text: as §7, §3, §4, §8, §9
For Aβtotal detection, a Streptavidine-Peroxidase-Conjugate was added, followed 60 min later by an additional wash step and addition of Quanta Blu fluorogenic peroxidase substrate according to the manufacturer's instructions (Pierce Corp., Rockford, Ill.). A reading was performed after 10 to 15 min (excitation 320 nm/emission 420 nm).

[9] = Table 3a, 18 hours, XLfit, top/bottom fixed to 100 and 0, hill slope 1
[10] = Table 3b, non-linear regression of % of control, averaged IC50 values

Structure (SMILES)	IC50 (Aβ42 [3]; Homo sapiens) [nM]	IC50 (Aβtotal [4]; Homo sapiens) [nM]	IC50 (Aβ42 [3]) [nM]	IC50 (Aβtotal [4]) [nM]	Aβ42 (% Ctrl) _Mean (Aβ42 [7]) [% Ctrl]	Aβtotal (% Ctrl) _Mean (Aβtotal [8]) [% Ctrl]	further results
COc1cc(Nc2cccc3c2nc(N2CCC(F)(F)CC2)n3C)ccc1-n1cnc(C)c1 [Compound 12]	–	–	–	–	–	–	IC50 (Aβ42 [1]; [9]): 84 nM; IC50 (Aβ42 [1]; [10]): 76 nM; IC50 (Aβtotal [2]; [9]): > 3000 nM; IC50 (Aβtotal [2]; [10]): > 3000 nM; melting point: 81.2 °C
COc1nc(Nc2cc(C(C)C)nc3c2nc(-c2ccc(F)cc2)n3C)ccc1-n1cnc(C)c1 [Compound 111]	4	4790	–	–	–	–	melting point: 172.3 °C
COc1cc(-c2nc3c(Nc4ccc(-n5cnc(C)c5)c(OC)n4)cccc3n2C(C)C)ccc1Cl [Compound 131]	–	–	5	8130	–	–	Aβ42 (% Ctrl) _Mean (Aβ42 [5]): 51 % Ctrl; Aβtotal (% Ctrl) _Mean (Aβtotal [6]): 84 % Ctrl
COc1cc(-c2nc3c(Nc4ccc(-n5cnc(C)c5)c(F)c4)nc(C)cc3n2C)ccc1Cl [Compound 136]	–	–	9	> 10000	77	104	–
CC(=O)Nc1cccc(-c2nc3c(Nc4ccc(-n5cnc(C)c5)c(F)c4)nc(C)cc3n2C)c1 [Compound 141]	79	> 10000	–	–	–	–	melting point: 257.2 °C
Cc1cn(-c2ccc(Nc3nc(C)cc4c3nc(-c3cccc(N(C)C)c3)n4C)cc2F)cn1 [Compound 142]	–	–	15	9330	73	98	–
COc1cc(Nc2ccc(-n3cnc(C)c3)c(OC)n2)c2nc(-c3ccc(F)cc3)n(C)c2c1 [Compound 160]	–	–	5	> 10000	84	78	–
COc1nc(Nc2cccc3c2nc(-c2ccc(F)cc2)n3C(C)C)ccc1-n1cnc(C)n1 [Compound 162]	–	–	5	5620	79	97	–
COc1nc(Nc2cccc3c2nc(-c2cc(F)cc(F)c2)n3C)ccc1-n1cnc(C)c1.Cl.Cl.O [Compound 165]	–	–	6	3720	44	85	–
COc1nc(Nc2cccc3c2nc(-c2cccc(C(F)(F)F)c2)n3C)ccc1-n1cnc(C)c1 [Compound 167]	–	–	7	5250	46	84	–
COc1nc(Nc2cccc3c2nc(-c2cccc(NC(C)=O)c2)n3C)ccc1-n1cnc(C)c1 [Compound 174]	38	9550	–	–	90	104	–
COc1cc(-c2nc3c(Nc4ccc(-n5cnc(C)c5)c(OC)n4)cccc3n2C)ccc1F [Compound 184]	13	> 10000	–	–	31	88	–
COc1cc(OC)cc(-c2nc3c(Nc4ccc(-n5cnc(C)c5)c(OC)n4)cccc3n2C)c1.Cl.Cl.O [Compound 186]	–	–	12	8320	38	88	–
COc1nc(Nc2cccc3c2nc(-c2cc(C(F)(F)F)ccc2F)n3C)ccc1-n1cnc(C)c1 [Compound 187]	36	7240	–	–	75	96	–
COc1nc(Nc2cccc3c2nc(-c2cccc(OC(F)(F)F)c2)n3C)ccc1-n1cnc(C)c1 [Compound 189]	–	–	17	8320	48	95	–
COc1cc(Nc2ccc(-n3cnc(C)c3)c(OC)n2)c2nc(-c3ccc(F)cc3)n(C)c2n1 [Compound 202]	–	–	5	> 10000	82	102	–
